ChEMBL document CHEMBL5244273, “Tuberculosis: An Overview of the Immunogenic Response, Disease Progression, and Medicinal Chemistry Efforts in the Last Decade toward the Development of Potential Drugs for Extensively Drug-Resistant Tuberculosis Strains” (J Med Chem, 2021)
≈ marks a conversion by molar mass, not a printed value.

Tests used:
Assay type in all cases: functional
[1] = system: Mycobacterium tuberculosis; assay: Antimycobacterial activity against extensively-resistant Mycobacterium tuberculosis H37Rv assessed as inhibition of bacterial growth by alamar blue assay
[2] = system: Mycobacterium tuberculosis; assay: Antimycobacterial activity against multidrug-resistant Mycobacterium tuberculosis H37Rv assessed as inhibition of bacterial growth by alamar blue assay
[3] = system: Mycobacterium tuberculosis; assay: Antimycobacterial activity against isoniazid, rifampicin, ethambutol, pyrazinamide, capreomycin, and ethionamide resistant Mycobacterium tuberculosis clinical isolate incubated for 7 days by resazurin microtitre assay; conditions: 168 h, time 7 day
[4] = system: Mycobacterium tuberculosis; assay: Antimycobacterial activity against isoniazid resistant Mycobacterium tuberculosis clinical isolate incubated for 7 days by resazurin microtitre assay; conditions: 168 h, time 7 day
[5] = system: Mycobacterium tuberculosis; assay: Antimycobacterial activity against isoniazid, rifampicin, ethambutol, pyrazinamide, streptomycin, capreomycin, amikacin, kanamycin, ofloxacin, and ethionamide resistant Mycobacterium tuberculosis clinical isolate incubated for 7 days by resazurin microtitre assay; conditions: 168 h, time 7 day
[6] = system: Mycobacterium tuberculosis; assay: Antitubercular activity against multidrug resistant Mycobacterium tuberculosis clinical isolate 8 by resazurin microtitre assay
[7] = system: Mycobacterium tuberculosis; assay: Antitubercular activity against extensively drug resistant Mycobacterium tuberculosis KMRC 0 0203-0 0197 by resazurin microtitre assay
[8] = system: Mycobacterium tuberculosis; assay: Antitubercular activity against multidrug resistant Mycobacterium tuberculosis clinical isolate 5 by resazurin microtitre assay
[9] = system: Mycobacterium tuberculosis; assay: Antitubercular activity against multidrug resistant Mycobacterium tuberculosis clinical isolate 4 by resazurin microtitre assay
[10] = system: Mycobacterium tuberculosis; assay: Antitubercular activity against extensively drug resistant Mycobacterium tuberculosis clinical isolate 10 by resazurin microtitre assay
[11] = system: Mycobacterium tuberculosis; assay: Antitubercular activity against multidrug resistant Mycobacterium tuberculosis clinical isolate 1 by resazurin microtitre assay
[12] = system: Mycobacterium tuberculosis; assay: Antitubercular activity against extensively drug resistant Mycobacterium tuberculosis clinical isolate 4 by resazurin microtitre assay
[13] = system: Mycobacterium tuberculosis; assay: Antitubercular activity against multidrug resistant Mycobacterium tuberculosis clinical isolate 11 by resazurin microtitre assay
[14] = system: Mycobacterium tuberculosis; assay: Antitubercular activity against extensively drug resistant Mycobacterium tuberculosis clinical isolate 1 by resazurin microtitre assay
[15] = system: Mycobacterium tuberculosis; assay: Antitubercular activity against multidrug resistant Mycobacterium tuberculosis clinical isolate 9 by resazurin microtitre assay
[16] = system: Mycobacterium tuberculosis; assay: Antitubercular activity against multidrug resistant Mycobacterium tuberculosis clinical isolate 7 by resazurin microtitre assay
[17] = system: Mycobacterium tuberculosis; assay: Antitubercular activity against extensively drug resistant Mycobacterium tuberculosis clinical isolate 9 by resazurin microtitre assay
[18] = system: Mycobacterium tuberculosis; assay: Antitubercular activity against extensively drug resistant Mycobacterium tuberculosis clinical isolate 6 by resazurin microtitre assay
[19] = system: Mycobacterium tuberculosis; assay: Antitubercular activity against multidrug resistant Mycobacterium tuberculosis clinical isolate 3 by resazurin microtitre assay
[20] = system: Mycobacterium tuberculosis; assay: Antitubercular activity against extensively drug resistant Mycobacterium tuberculosis clinical isolate 7 by resazurin microtitre assay
[21] = system: Mycobacterium tuberculosis; assay: Antitubercular activity against extensively drug resistant Mycobacterium tuberculosis clinical isolate 11 by resazurin microtitre assay
[22] = system: Mycobacterium tuberculosis; assay: Antitubercular activity against extensively drug resistant Mycobacterium tuberculosis clinical isolate 3 by resazurin microtitre assay
[23] = system: Mycobacterium tuberculosis; assay: Antitubercular activity against extensively drug resistant Mycobacterium tuberculosis clinical isolate 5 by resazurin microtitre assay
[24] = system: Mycobacterium tuberculosis; assay: Antitubercular activity against extensively drug resistant Mycobacterium tuberculosis clinical isolate 2 by resazurin microtitre assay
[25] = system: Mycobacterium tuberculosis; assay: Antitubercular activity against multidrug resistant Mycobacterium tuberculosis clinical isolate 10 by resazurin microtitre assay
[26] = system: Mycobacterium tuberculosis; assay: Antitubercular activity against multidrug resistant Mycobacterium tuberculosis clinical isolate 6 by resazurin microtitre assay
[27] = system: Mycobacterium tuberculosis; assay: Antitubercular activity against extensively drug resistant Mycobacterium tuberculosis clinical isolate 8 by resazurin microtitre assay
[28] = system: Mycobacterium tuberculosis; assay: Antitubercular activity against multidrug resistant Mycobacterium tuberculosis clinical isolate 2 by resazurin microtitre assay
[29] = system: Mycobacterium tuberculosis; assay: Antimycobacterial activity against isoniazid and ethionamide resistant Mycobacterium tuberculosis clinical isolate B
[30] = system: Mycobacterium tuberculosis; assay: Antimycobacterial activity against isoniazid, streptomycin and ethionamide resistant Mycobacterium tuberculosis clinical isolate F
[31] = system: Mycobacterium tuberculosis; assay: Antimycobacterial activity against isoniazid, streptomycin, ethambutol and ethionamide resistant Mycobacterium tuberculosis clinical isolate A
[32] = system: Mycobacterium tuberculosis; assay: Antimycobacterial activity against isoniazid, streptomycin, rifampicin, ethambutol, ethionamide and ofloxacin resistant Mycobacterium tuberculosis clinical isolate H
[33] = system: Mycobacterium tuberculosis; assay: Antimycobacterial activity against isoniazid and ethionamide resistant Mycobacterium tuberculosis clinical isolate E
[34] = system: Mycobacterium tuberculosis; assay: Antimycobacterial activity against isoniazid, streptomycin, rifampicin, ethambutol and ethionamide resistant Mycobacterium tuberculosis clinical isolate G
[35] = system: Mycobacterium tuberculosis; assay: Antimycobacterial activity against multidrug resistant Mycobacterium tuberculosis H37Rv
[36] = system: Mycobacterium tuberculosis; assay: Antimycobacterial activity against extensively drug resistant Mycobacterium tuberculosis H37Rv
[37] = system: Mycobacterium tuberculosis; assay: Antimycobacterial activity against isoniazid, streptomycin, and rifampicin resistant Mycobacterium tuberculosis clinical isolate C

SMILES | MIC [6] | MIC [7] | MIC [8] | MIC [9] | MIC [10] | MIC [11] | MIC [12] | MIC [13] | MIC [14] | MIC [15] | MIC [16] | MIC [17] | MIC [18] | MIC [19] | MIC [20] | MIC [21] | MIC [22] | MIC [23] | MIC [24] | MIC [25] | other results
COc1ccccc1NC(=O)c1c(Nc2cccc(C)c2)nn2c(O)cc(C)nc12 | – | – | – | – | – | – | – | – | – | – | – | – | – | – | – | – | – | – | – | – | MIC [1]: 12.5 µg/mL (≈ 31 µM); MIC [2]: 6.25 µg/mL (≈ 15.5 µM)
CC(=O)N1/C(=C/c2ccc(Br)cc2)C(=O)c2ccccc21 | – | – | – | – | – | – | – | – | – | – | – | – | – | – | – | – | – | – | – | – | MIC [3]: 9.15 µM (≈ 3.13 µg/mL); MIC [4]: 15.2 µM (≈ 5.2 µg/mL); MIC [5]: 15.2 µM (≈ 5.2 µg/mL)
CC(=O)N1/C(=C/c2ccc(-c3ccc(Cl)cc3)cc2)C(=O)c2ccccc21 | – | – | – | – | – | – | – | – | – | – | – | – | – | – | – | – | – | – | – | – | MIC [3]: 10.4 µM (≈ 3.89 µg/mL); MIC [4]: 8.37 µM (≈ 3.13 µg/mL); MIC [5]: 8.37 µM (≈ 3.13 µg/mL)
Cc1cc(O)n2nc(Nc3ccc(F)c(F)c3)c(C(=O)Nc3ccc(F)cc3)c2n1 | – | – | – | – | – | – | – | – | – | – | – | – | – | – | – | – | – | – | – | – | MIC [1]: 25 µg/mL (≈ 60.5 µM); MIC [2]: 3.12 µg/mL (≈ 7.55 µM)
CC[C@@H](CO)NCCN[C@@H](CC)CO [ETHAMBUTOL] | 6.25 µg/mL (≈ 30.6 µM) | 6.25 µg/mL (≈ 30.6 µM) | 6.25 µg/mL (≈ 30.6 µM) | 6.25 µg/mL (≈ 30.6 µM) | 6.25 µg/mL (≈ 30.6 µM) | 6.25 µg/mL (≈ 30.6 µM) | 6.25 µg/mL (≈ 30.6 µM) | 6.25 µg/mL (≈ 30.6 µM) | 6.25 µg/mL (≈ 30.6 µM) | 3.13 µg/mL (≈ 15.3 µM) | 6.25 µg/mL (≈ 30.6 µM) | 6.25 µg/mL (≈ 30.6 µM) | 6.25 µg/mL (≈ 30.6 µM) | 3.13 µg/mL (≈ 15.3 µM) | 12.5 µg/mL (≈ 61.2 µM) | 6.25 µg/mL (≈ 30.6 µM) | 6.25 µg/mL (≈ 30.6 µM) | 6.25 µg/mL (≈ 30.6 µM) | 6.25 µg/mL (≈ 30.6 µM) | 0.78 µg/mL (≈ 3.82 µM) | MIC [26]: 6.25 µg/mL (≈ 30.6 µM); MIC [27]: 6.25 µg/mL (≈ 30.6 µM); MIC [28]: 6.25 µg/mL (≈ 30.6 µM)
CCc1cc(C(N)=S)ccn1 [ETHIONAMIDE] | – | – | – | – | – | – | – | – | – | – | – | – | – | – | – | – | – | – | – | – | MIC [29]: > 114 µg/mL; MIC [30]: > 80 µg/mL; MIC [31]: 114 µg/mL (≈ 686 µM); MIC [32]: 114 µg/mL (≈ 686 µM); MIC [33]: > 80 µg/mL; MIC [34]: > 114 µg/mL
NNC(=O)c1ccncc1 [ISONIAZID] | 12.5 µg/mL (≈ 91.1 µM) | 25 µg/mL (≈ 182 µM) | 12.5 µg/mL (≈ 91.1 µM) | 25 µg/mL (≈ 182 µM) | > 200 µg/mL | 12.5 µg/mL (≈ 91.1 µM) | 12.5 µg/mL (≈ 91.1 µM) | 12.5 µg/mL (≈ 91.1 µM) | 12.5 µg/mL (≈ 91.1 µM) | 25 µg/mL (≈ 182 µM) | 50 µg/mL (≈ 365 µM) | 50 µg/mL (≈ 365 µM) | 12.5 µg/mL (≈ 91.1 µM) | 3.13 µg/mL (≈ 22.8 µM) | 6.25 µg/mL (≈ 45.6 µM) | 6.25 µg/mL (≈ 45.6 µM) | 3.13 µg/mL (≈ 22.8 µM) | 12.5 µg/mL (≈ 91.1 µM) | 3.13 µg/mL (≈ 22.8 µM) | 3.13 µg/mL (≈ 22.8 µM) | MIC [35]: 6.25 µg/mL (≈ 45.6 µM); MIC [1]: 50 µg/mL (≈ 365 µM); MIC [36]: 50 µg/mL (≈ 365 µM); MIC [2]: 6.25 µg/mL (≈ 45.6 µM); MIC [26]: 25 µg/mL (≈ 182 µM); MIC [27]: 12.5 µg/mL (≈ 91.1 µM); MIC [28]: 12.5 µg/mL (≈ 91.1 µM)
NC(=O)c1cnccn1 [PYRAZINAMIDE] | > 200 µg/mL | > 200 µg/mL | > 200 µg/mL | > 200 µg/mL | > 200 µg/mL | > 200 µg/mL | > 200 µg/mL | > 200 µg/mL | > 200 µg/mL | > 200 µg/mL | > 200 µg/mL | > 200 µg/mL | > 200 µg/mL | > 200 µg/mL | > 200 µg/mL | > 200 µg/mL | > 200 µg/mL | > 200 µg/mL | > 200 µg/mL | > 200 µg/mL | MIC [26]: > 200 µg/mL; MIC [27]: > 200 µg/mL; MIC [28]: > 200 µg/mL
CO[C@H]1/C=C/O[C@@]2(C)Oc3c(C)c(O)c4c(O)c(c(/C=N/N5CCN(C)CC5)c(O)c4c3C2=O)NC(=O)/C(C)=C\C=C\[C@H](C)[C@H](O)[C@@H](C)[C@@H](O)[C@@H](C)[C@H](OC(C)=O)[C@@H]1C [RIFAMPIN] | > 200 µg/mL | 100 µg/mL (≈ 122 µM) | 3.13 µg/mL (≈ 3.8 µM) | > 200 µg/mL | 6.25 µg/mL (≈ 7.59 µM) | > 200 µg/mL | 6.25 µg/mL (≈ 7.59 µM) | 3.13 µg/mL (≈ 3.8 µM) | > 200 µg/mL | > 200 µg/mL | > 200 µg/mL | > 200 µg/mL | 100 µg/mL (≈ 122 µM) | > 200 µg/mL | > 200 µg/mL | > 200 µg/mL | > 200 µg/mL | > 200 µg/mL | > 200 µg/mL | 3.13 µg/mL (≈ 3.8 µM) | MIC [3]: > 12.2 µM; MIC [4]: 0.377 µM (≈ 0.31 µg/mL); MIC [5]: > 12.2 µM; MIC [26]: > 200 µg/mL; MIC [27]: > 200 µg/mL; MIC [28]: > 200 µg/mL
CN[C@@H]1[C@H](O[C@H]2[C@H](O[C@H]3[C@H](O)[C@@H](O)[C@H](N=C(N)N)[C@@H](O)[C@@H]3N=C(N)N)O[C@@H](C)[C@]2(O)C=O)O[C@@H](CO)[C@H](O)[C@H]1O [STREPTOMYCIN] | 3.13 µg/mL (≈ 5.38 µM) | 0.78 µg/mL (≈ 1.34 µM) | 3.13 µg/mL (≈ 5.38 µM) | 0.78 µg/mL (≈ 1.34 µM) | < 0.09 µg/mL | 100 µg/mL (≈ 172 µM) | 0.78 µg/mL (≈ 1.34 µM) | 3.13 µg/mL (≈ 5.38 µM) | 0.78 µg/mL (≈ 1.34 µM) | 25 µg/mL (≈ 43 µM) | 200 µg/mL (≈ 344 µM) | 200 µg/mL (≈ 344 µM) | 50 µg/mL (≈ 86 µM) | 0.39 µg/mL (≈ 0.671 µM) | 0.78 µg/mL (≈ 1.34 µM) | 200 µg/mL (≈ 344 µM) | > 200 µg/mL | 50 µg/mL (≈ 86 µM) | 50 µg/mL (≈ 86 µM) | > 200 µg/mL | MIC [29]: 8 µg/mL (≈ 13.8 µM); MIC [37]: 32 µg/mL (≈ 55 µM); MIC [30]: > 16 µg/mL; MIC [31]: > 64 µg/mL; MIC [32]: > 64 µg/mL; MIC [33]: 16 µg/mL (≈ 27.5 µM); MIC [34]: > 64 µg/mL; MIC [26]: 25 µg/mL (≈ 43 µM); MIC [27]: > 200 µg/mL; MIC [28]: 1.56 µg/mL (≈ 2.68 µM)
